Results: ChEMBL document CHEMBL1144060, “Tetrin C, a new glycosylated polyene macrolide antibiotic produced by Streptomyces sp. GK9244” (J Nat Prod, 1999)
In brackets after ≈: the same amount, converted by molar mass.

How the values were obtained:
Umbelopsis ramanniana = assay: Antifungal activity against Mortierella ramanniana; type: functional
Penicillium chrysogenum = assay: Antifungal activity against Penicillium chrysogenum; type: functional
Candida albicans = assay: Antifungal activity against Candida albicans; type: functional
P388 = assay: Cytotoxicity against mouse P388 cells; type: functional, cell-based

MIC (Umbelopsis ramanniana): 5 µg/mL (≈ 7.21 µM)
MIC (Penicillium chrysogenum): 10 µg/mL (≈ 14.4 µM)
MIC (Candida albicans): 10 µg/mL (≈ 14.4 µM)
Structure (SMILES): C[C@H]1/C=C/C=C/C=C/C=C/[C@H](O[C@@H]2O[C@H](C)[C@@H](O)[C@H](N)[C@@H]2O)C[C@@H]2O[C@](O)(C[C@@H](O)CC(=O)C(=O)/C=C/C(=O)O[C@@H]1C)C[C@H](O)[C@H]2C(=O)O [TETRIN C]
IC50 (P388): 4.6 µg/mL (≈ 6.63 µM)
